Data published in patent US8173672B2, “Quinolizidinone M1 receptor positive allosteric modulators” (Merck Sharp & Dohme Corp., priority 2008, dated 2012).

biological target: T1, acetylcholine muscarinic M1 receptor (Homo sapiens, UniProt P11229); test: muscarinic FLIPR assay: potentiation of acetylcholine (EC20)-stimulated intracellular calcium in CHOnfat/hM1 cells; type: cell-based; conditions: 4 min preincubation, then EC20 acetylcholine (3 nM final), read-out: IP Value (inflection point)
T1 construct: expressed in transfected cells; host or cells: CHOnfat (CHO cells; also called CHOK1/hM1), selected with Geneticin
T1 sequence (P11229 1-460): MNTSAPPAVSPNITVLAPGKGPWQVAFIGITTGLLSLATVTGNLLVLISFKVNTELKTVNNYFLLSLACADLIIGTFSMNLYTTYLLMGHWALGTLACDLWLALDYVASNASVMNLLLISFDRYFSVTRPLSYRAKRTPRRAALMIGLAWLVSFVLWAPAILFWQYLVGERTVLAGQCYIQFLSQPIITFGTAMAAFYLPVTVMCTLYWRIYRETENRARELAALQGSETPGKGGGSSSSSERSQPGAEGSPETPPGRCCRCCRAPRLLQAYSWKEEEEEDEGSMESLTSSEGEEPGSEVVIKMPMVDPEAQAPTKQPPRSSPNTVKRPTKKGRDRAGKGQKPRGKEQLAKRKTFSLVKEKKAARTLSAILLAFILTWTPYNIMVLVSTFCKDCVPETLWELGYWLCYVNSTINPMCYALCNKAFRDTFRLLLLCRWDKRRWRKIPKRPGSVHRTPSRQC
Protocol: The assay studies the effect of one or several concentrations of test compounds on basal or acetylcholine-stimulated Ca^2+ levels using FLIPR.
Compounds are prepared and subjected to a preincubation period of 4 min. Thereafter, a single EC20 concentration of acetylcholine is added to each well (3 nM final). The intracellular Ca^2+ level of each sample is measured and compared to an acetylcholine control to determine any modulatory activity.
Cells: CHOnfat/hM1, hM2, hM3 or hM4 cells are plated 24 hr before the assay at a density of 18,000 cells/well (100 μL) in a 384 well plate. CHOnfat/hM1 and CHOnfat/hM3 Growth Medium: 90% DMEM (Hi Glucose); 10% HI FBS; 2 mM L-glutamine; 0.1 mM NEAA; Pen-Strep; and 1 mg/ml Geneticin, are added. For M2Gqi5CHOnfat and M4Gqi5CHOnfat cells, an additional 600 μg/ml hygromycin is added.
Equipment: 384 well plate, 120 μL addition plate; 96-well Whatman 2 ml Uniplate Incubator, 37° C., 5% CO2; Skatron EMBLA-384 Plate Washer; Multimek Pipetting System; Genesis Freedom 200 System; Mosquito System; Temo Nanolitre Pipetting System; and FLIPR^384 Fluorometric Imaging Plate Reader System are used.
Buffers. Assay Buffer: Hanks Balanced Salt Solution, with 20 mM Hepes, 2.5 mM Probenecid (Sigma P-8761) first dissolved in 1N aqueous NaOH, 1% Bovine Serum Albumin (Sigma A-9647). Dye Loading Buffer: Assay Buffer plus 1% Fetal Bovine Serum and Fluo-4AM/Pluronic Acid Mixture. 2 mM Fluo-4AM ester stock in DMSO (Molecular Probes F-14202) Concentration of 2 μM in buffer for a final concentration of 1 μM in Assay. 20% Pluronic Acid Solution stock, with a concentration of 0.04% in Buffer, 0.02% in Assay.
65 μl of 2 mM Fluo-4AM are mixed with 130 μL of 20% Pluronic Acid. The resulting solution and 650 μL FBS is added to the assay buffer for a total volume of 65 mL. Positive Controls: 4-Br-A23187: 10 mM in DMSO; final concentration 10 μM. Acetylcholine: 10 mM in water, working stock at both 20 μM and 30 μM in assay buffer, final concentration of 10 μM. This is used to check the maximum stimulation of the CHOK1/hM1 cells. 20 μM (2×) acetylcholine is added in the preincubation part of the assay, and the 30 μM (3×) stock is added in the second part. (EC20) Acetylcholine: 10 mM in water, working stock of 9 nM (3×), and final concentration in assay is 3 nM. This is used after the preincubation with test compounds. Addition of the EC20 Acetylcholine to each well with a test compound will ascertain any modulator activity. 24 wells contain 3 nM Acetylcholine alone as a control.
Determining Activity of Putative Compounds:
Screening Plate: Compounds are titrated in 96-well plates (columns 2-11), 100% DMSO, started at a concentration of 15 mM (150× stock concentration), and 3-fold serial dilutions using Genesis Freedom200 System. Four 96-well plates are combined into a 384-well plate using Mosquito Nanolitre Pipetting System by transferring 1 μl of serial diluted compounds to each well, and 1 mM acetylcholine (100× stock concentration) were added as a control. Using Temo, 49 μl assay buffer is added to each well of the 384-well plate right before assay.
In a 96-well Whatman 2 ml Uniplate, 9 nM Acetylcholine (3×) is pipetted into wells corresponding to the screening compounds and into control wells. The 30 μM acetylcholine control (3×) is added into control wells and the 3× agonist plate is transferred into a 384-well plate.
Cells are washed three times with 100 μL of buffer, leaving 30 μL of buffer in each well. Using Multimek, 30 μL of Dye Loading Buffer is added into each well and incubated at 37° C., 5% CO2 for up to one hr.
After 60 min, the cells are washed three times with 100 μL of buffer, leaving 30 μL of buffer in each well. The cell plate, screening plate, and agonist addition plates are placed on the platform in the FLIPR and the door is closed. A signal test to check background fluorescence and basal fluorescence signal is performed. Laser intensity is adjusted if necessary. […]

SMILES	EC50 [µM]
O=C(O)c1cc(CN2Cc3ccccc3C[C@@H]2CO)c2ccccn2c1=O [Example 7]	8.98
O=C(O)c1cc(CN2CCc3ccccc3C2c2ccccc2F)c2ccccn2c1=O (centres unmarked) [Example 18]	0.15
O=C(O)c1cc(CN2CCc3cc(Cl)ccc3C2)c2ccccn2c1=O [Example 1, 1-[(6-chloro-3,4-dihydroisoquinolin-2(1H)-yl)methyl]-4-oxo-4H-quinolizine-3-carboxylic acid]	0.51
O=C(O)c1cc(CN2CCc3ccccc3C2)c2ccccn2c1=O [Example 6]	1.72
CCOC(=O)C1c2ccccc2CCN1Cc1cc(C(=O)O)c(=O)n2ccccc12 (centres unmarked) [Example 11]	0.286
O=C(O)c1cc(CN2CCc3ccccc3C2c2ccncc2)c2ccccn2c1=O (centres unmarked) [Example 17]	0.084

Now from value to molecule:

EC50 [µM]	SMILES
0.9	O=C(O)c1cc(CN2CCc3cnccc3C2)c2ccccn2c1=O [Example 54]
4.18	O=C(O)c1cc(CN2CCn3c(-c4ccccc4)cnc3C2)c2ccccn2c1=O [Example 69]
6.7	Cc1ccc2c(c1)CCN(Cc1cc(C(=O)O)c(=O)n3ccccc13)C2 [Example 89, 1-[(6-methyl-3,4-dihydroisoquinolin-2(1H)-yl)methyl]-4-oxo-4H-quinolizine-3-carboxylic acid]
6.2	O=C(O)c1cc(CN2CCc3cc(-c4ccccc4)ccc3C2)c2ccccn2c1=O [Example 87, 4-Oxo-1-[(6-phenyl-3,4-dihydroisoquinolin-2(1H)-yl)methyl]-4H-quinolizine-3-carboxylic acid]
12	N#Cc1ccc2c(c1)CCN(Cc1cc(C(=O)O)c(=O)n3ccccc13)C2 [Example 88, 1-[(6-cyano-3,4-dihydroisoquinolin-2(1H)-yl)methyl]-4-oxo-4H-quinolizine-3-carboxylic acid]
